Here are results for five molecules from US10443089B2, “Methods of multiplexing DNA sensors and localizing DNA sensor” (NATIONAL CENTRE FOR BIOLOGICAL SCIENCES (NCBS-TIFR), priority 2013, dated 2019).

“Also recorded” adds a separate entry of the source.

The nature of data set [1]: Comparison of DNA pH sensors with pH sensitive organic dyes and GFP based probes. The conditions noted are these: for Working regime: pH.
In data set [2] the test system is IA2.2 cells expressing scFv-furin. Kind of data set: SimpHony of early and late endosomes with and without Dynasore. The format is cell-based, Chinese Hamster. Here is the method: The DNA sensor of the present disclosure is applied to this system, by marking early endosomes with about 500 nM Tf-I^TfA488/A647 and late endosomes with about 500 nM I^FuA546/A647 in the presence and absence of Dynasore. I^n the absence of Dynasore, early endosomes undergo active fusion and fission; showing an average pH of about 6.05±0.07 (FIG. 17) while the late endosomes show an average pH of about 5.43±0.3.
FIG. 17 depicts Dynasore mediated arrest of endosomal fission. Early/sorting and late endosomes in IA2.2 cells expressing scFv-furin are marked with about 500 nM Tf-I^TfA488/A647 at 37° C. for 10 min. Time lapse images of control cells (−Dy) where no dynasore is added, (+Dy) in presence of about 160 μM dynasore and (W) after dynasore is washed out and incubated for about 10 min at about 37° C. for recovery. Images are acquired with a time interval of about 2 s over 2 min period and compressed to a movie playing at 7 fps.

Data set [3] has as its system scFv-furin expressing IA2.2 cells. The experiment in a line: SimpHony of early endosomes and TGN with and without Brefeldin A. The format is cell-based, Chinese Hamster. Conditions: BFA 20 μg/mL, 10 min. The text has this:
SimpHony is applied on BFA-induced tubules positive for furin marked by I^FuA546/A647 while simultaneously marking transferrin containing endosomes with Tf-I^TfA488/A647. BFA treated cells show tubular extensions emerging from compartments localize near the MTOC (FIG. 18a). Tf-I^TfA488/A647 in these cells occupies the excluded space of I^FuA546/A647 in the region around the MTOC in addition to a few cytoplasmic endosomes (FIG. 19b).
FIG. 19 depicts localization of Tf-I^Tf and I^Fu DNA sensors in compartments after BFA treatment. scFv-Furin expressing IA2.2 cells are pulsed with about 500 nM I^FuA546/647 for 2 hours and chased for 30 min in presence of CHX followed by absence (a) or presence (b) of BFA (about 20 μg/mL) treatment of about 10 min at about 37° C. Cells are pulsed with about 500 nM Tf-I^TfA488/A647 in presence of BFA and CHX to label early endosomes. Arrowheads show MTOC. Scale Bar: 10 μm.
FIG. 22 describes the pH heterogeneity of early endosomes and TGN, pre and post treatment with BFA. IA2.2 cells are pulsed with about 500 nM IFuA546/A647 for about 2 hours and chased for 30 min in presence of about 125 ug/ml CHX followed by absence or presence of BFA (about 20 μg/mL) treatment of about 10 min at about 37° C. Cells are further treated with about 500 nM Tf-ITfA488/A647 in presence of about 20 μg/mL BFA and about 125 ug/ml CHX to label early endosomes.

Data set [4] relates to 35 bp dsDNA tag, d(AT)4. The experiment in a line: Competitive ELISA, binding affinity of purified scFv to immobilized dsDNA. The procedure:
The binding affinity of this scFv with the 35 bp DNA duplex is assayed using competitive ELISA that is performed using a fixed amount of immobilized dsDNA (25 pmoles) followed by the addition of a fixed concentration of scFv (200 nM) in the presence of an increasing concentration of unlabeled dsDNA (I^comp, about 10 nM to about 1 μM) in solution.
This experiment is carried out to find strength of binding of clone C1 with DNA. The affinity and specificity of scFv is analyzed by ELISA after purifying the scFv. Streptavidin-coated 96-well plate is incubated with dsDNA epitope used for screening in 5×SSCT (about 75 mM Sodium citrate, about 750 mM NaCl, about 0.05% Tween-20) for about 1.5 hours for immobilization of dsDNA onto the Streptavidin-coated 96-well plate.
For competition experiments, dsDNA immobilized onto Streptavidin-coated 96-well plate is incubated with the mixture of increasing amount of (from 0 to 10 micromoles) of competing nucleic acid, purified scFv (about 200-300 nM) and 1 in 1000 dilution of anti myc-tag antibody for about 1.5 hours at room temperature. […] Bound scFvs are detected by addition of 100 microliters of 2×TMB/H202 and OD at 450 nm is recorded and normalized with respect to the well where no competitor is added. […]
Background: In an ELISA, binding on a coated surface is turned into a signal by an enzyme label.

Data set [5] has as its system DNA epitopes ssDNA, dsDNA, R1, R2, RM. Kind of data set: ELISA screen of scFv clones for sequence specific binding to DNA epitopes. The conditions noted are these: epitopes R1, R2, RM of the 35 bp dsDNA; listed as C1. Here is the method:
The 35 bp dsDNA is divided into three regions: • (i) One region is composed of 13 bp of the antigen from the 3′ end (known as Region 1 (R1), FIG. 6a, red), • (ii) the second region corresponds to base pairs 16 to 28 from 3′ end (Region 2 (R2), FIG. 6a, green) and • (iii) the third region is an overlap of regions 1 and 2 (Region M (RM), FIG. 6a, blue).
These three duplexes are annealed and then immobilized on three different 96-well plates. scFv supernatant of the same clones is added to the wells and incubated as described earlier. […] Thus, the scFvs corresponding to these clones recognize only the first 8 base pairs of the 35 bp dsDNA i.e., the sequence d(AT)4.
In order to screen for sequence specificity of binding to duplex DNA, each of the selected clones are similarly assayed by ELISA to a set of surface-immobilized DNA scaffolds. These correspond to a single stranded DNA sequence comprising only the biotinylated strand of the 35 bp dsDNA the 35 bp dsDNA duplex (dsDNA), and three shorter duplex regions R1, R2 and RM corresponding to various sections on the 35 bp dsDNA duplex. R1 corresponds to a […] region at the 3′ terminus of the biotinylated ssDNA oligonucleotide, R2 correspond to a 13 bp region abutting R1, while RM corresponded to a 13 bp region overlapping the 5′ end of R1 and the 3′ of R2. […]

The pKa is the negative logarithm of the acid dissociation constant. Low readings indicate a stronger acid or weaker base, high ones a weaker acid or stronger base. Take `O=C1OC2(c3cc(F)c(O)cc3Oc3cc(O)c(F)cc32)c2ccccc21` [Oregon green 488]: in data set [1], the pKa is 4.7 and the Working regime is reported as 4.0-5.0.
In the case of `O=C(N/N=C/c1ccc(O)c(O)c1)c1cc2ccccc2cc1O` [Dynasore], in data set [2] (Dynasore washed out), the “average pH of early endosomes after wash out” value was “completely restored”. Besides, the “early endosome morphology and dynamics” value in data set [2] (presence of 160 μM dynasore) is reported as “extensive tubulation of the early endosomes as well as their arrested dynamics”.
Consider `C[C@H]1CCC/C=C/[C@@H]2C[C@H](O)C[C@H]2[C@H](O)/C=C/C(=O)O1` [Brefeldin A], for which, in data set [3], the “morphology of furin containing compartments” value is on record as “tubulate extensively”.
On to Fluorescein (FITC), for which the Working regime in data set [1] is 5-8.

B1: clone C1: scFv recombinant antibody from phage display binding dsDNA sequence d(AT)4; SEQ ID No. 16 (protein)
scFv: MAEVQLLESGGGLVQPGGSLRLSCAASGFTFSSYAMSWVRQAPGKGLEWVSTITKRGERTKYADSVKGRFTISRDNSKNTLYLQMNSLRAEDTAVYYCAKSTRAFDYWGQGTLVTVSSGGGGSGGGGSGGGGSTDIQMTQSPSSLSASVGDRVTITCRASQSISSYLNWYQQKPGKAPKLLIYGASYLQSGVPSRFSGSGSGTDFTLTISSLQPEDFATYYCQQTRFSPNTFGQGTKVEIKRAAAHHHHHHGAAEQKPISEEDLNGAAGGD
modifications: scFv Protein Sequence; DNA_BIND (1)..(271)
In general, Kd refers to a measure of binding affinity in units of concentration. Take B1: the relative binding constant result in data set [4] (25 pmoles immobilized dsDNA, 200 nM scFv, competitor I^comp 10 nM to 1 μM) is “about 1.25×10^7 M^−1”. In data set [4] (35 bp DNA duplex / d(AT)4), the dissociation constant (Kd) was 80 nM. In data set [5], the “DNA epitope specificity by ELISA” value is “binding to R1 and no other region; also recorded: binds a DNA sequence ATATATAT”.
